ChEMBL document CHEMBL1152023, “Phenyl pyrrolidine analogues as potent nicotinic acetylcholine receptor (nAChR) ligands” (Bioorg Med Chem Lett, 1995)

What follows are molecules tested against Neuronal acetylcholine receptor (assay: Ability to displace [3H](-)-cytisine from nicotinic acetylcholine receptor (nAChR) in a whole rat brain preparation).
In the case of `Cc1ccc(C2CCCN2C)cc1` (configuration not stated), the Ki is reported as 1330 nM. `CN1CCCC1c1ccc(F)cc1` (configuration not stated) was tested, and the Ki was 207 nM. Work on `Fc1cccc(C2=NCCC2)c1` yielded a Ki of over 10000 nM. With `CN1CCCC1c1ccc(C(F)(F)F)cc1` (configuration not stated) the Ki was 931 nM. For `COc1cc2c(cc1O)CCN1CC=C3C=C[C@H](OC)C[C@]321` [ERYSODINE], the Ki was 5 nM. `CN1CCCC1c1cccc(Cl)c1` (configuration not stated) showed a Ki of 227 nM. With `CN1CCCC1c1ccc(F)c(F)c1` (configuration not stated) the Ki was 420 nM. `c1ccc(C2CCCN2)cc1` (configuration not stated) was tested, and the Ki was 8700 nM. `Cc1cccc(C2CCCN2C)c1` (configuration not stated) gave a Ki of 719 nM. `COc1ccccc1C1CCCN1C` (configuration not stated) showed a Ki of over 10000 nM. `Clc1ccc(C2=NCCC2)cc1` gave a Ki of over 10000 nM. `CN1CCCC1c1ccc(Cl)c(Cl)c1` (configuration not stated) showed a Ki of 68 nM. `CN1CCCC1c1ccc2c(c1)OCO2` (configuration not stated) gave a Ki of 46 nM. `CN1CCCC1c1ccc(Cl)cc1` (configuration not stated) was tested, and the Ki was 164 nM. For `COc1ccc(C2CCCN2C)cc1OC` (configuration not stated), the Ki was 9700 nM. Molecule `CN1CCCC1c1ccc2c(c1)OCCO2` (configuration not stated) has a Ki of 1220 nM. For `COc1cc(C2CCCN2C)ccc1O` (configuration not stated), the Ki was 8250 nM. `Cc1ccccc1C1CCCN1C` (configuration not stated) showed a Ki of 9000 nM. `COc1ccc(C2CCCN2C)cc1` (configuration not stated) showed a Ki of 707 nM. In the case of `CN1CCCC1c1ccc(Br)cc1` (configuration not stated), the Ki is reported as 75 nM. For `COc1cccc(C2CCCN2C)c1` (configuration not stated), the Ki was 597 nM. For `CN1CCCC1c1cccc(F)c1` (configuration not stated), the Ki was 399 nM.
